From the NIST ThermoML archive (doi:10.1016/j.jct.2005.10.004)
Several values for one entry are separate records, joined by “and”; a condition that tells them apart may be missing. Identical values can stand only once. Numbers after ± are expanded uncertainties.

Conditions: Liquid, Buoyancy - hydrostatic balance with magnetic suspension - one sinker

N#N [nitrogen]
Conditions	mass density
249.96 K, 5023.9 kPa	69.8983 ± 0.016 kg/m3
249.96 K, 5024.2 kPa	69.9018 ± 0.016 kg/m3
249.96 K, 10070 kPa	141.612 ± 0.031 kg/m3
249.96 K, 15267 kPa	211.548 ± 0.045 kg/m3
249.96 K, 15270 kPa	211.579 ± 0.045 kg/m3 and 211.588 ± 0.045 kg/m3
249.96 K, 19857 kPa	266.561 ± 0.056 kg/m3
250 K, 4994.5 kPa	69.4686 ± 0.016 kg/m3
274.97 K, 10066 kPa	125.016 ± 0.027 kg/m3 and 125.014 ± 0.027 kg/m3
274.97 K, 19871 kPa	235.319 ± 0.05 kg/m3
274.97 K, 19875 kPa	235.358 ± 0.05 kg/m3
299.97 K, 10974 kPa	122.253 ± 0.027 kg/m3
299.97 K, 13855 kPa	152.56 ± 0.034 kg/m3 and 152.561 ± 0.034 kg/m3
299.97 K, 16780 kPa	181.982 ± 0.04 kg/m3
299.98 K, 16788 kPa	182.05 ± 0.04 kg/m3
399.99 K, 10101 kPa	81.9701 ± 0.018 kg/m3
399.99 K, 14807 kPa	117.441 ± 0.025 kg/m3
399.99 K, 17250 kPa	135.043 ± 0.029 kg/m3
400 K, 7435.4 kPa	61.0376 ± 0.014 kg/m3
400 K, 10100 kPa	81.9663 ± 0.018 kg/m3
400 K, 19953 kPa	153.853 ± 0.033 kg/m3
400 K, 19959 kPa	153.899 ± 0.033 kg/m3
